Experimental data as given in PMC8865417, “Receptor Interaction Profiles of 4-Alkoxy-3,5-Dimethoxy-Phenethylamines (Mescaline Derivatives) and Related Amphetamines” (Frontiers in Pharmacology, 2022).
Read-outs that look alike come from different tables or passages of the source.

Tests used:
humans = conditions: cited from earlier work
rat TAAR1 = molecular target: T1, rat TAAR1 (Rattus norvegicus, UniProt Q923Y9); assay: Radioligand binding at rat TAAR1 ([3H]RO5166017)
T1 construct: expressed in transfected cells; host or cells: HEK 293 cells (membrane preparations)
T1 sequence (Q923Y9 whole entry): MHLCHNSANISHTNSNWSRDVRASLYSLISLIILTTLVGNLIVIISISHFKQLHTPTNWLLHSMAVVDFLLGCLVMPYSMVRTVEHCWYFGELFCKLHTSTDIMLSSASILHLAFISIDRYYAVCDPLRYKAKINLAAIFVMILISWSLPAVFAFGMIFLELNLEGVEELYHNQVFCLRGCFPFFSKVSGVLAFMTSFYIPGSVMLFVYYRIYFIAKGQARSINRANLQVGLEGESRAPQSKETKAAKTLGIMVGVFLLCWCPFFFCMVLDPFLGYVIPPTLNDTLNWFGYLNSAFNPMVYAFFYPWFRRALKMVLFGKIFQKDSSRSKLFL

[1] = molecular target: T2, dopaminergic hD2 receptor (Homo sapiens, UniProt P14416); assay: Radioligand binding at dopaminergic hD2 receptor ([3H]spiperone)
T2 construct: expressed in transfected cells; host or cells: HEK 293 cells (membrane preparations)
T2 sequence (P14416 whole entry): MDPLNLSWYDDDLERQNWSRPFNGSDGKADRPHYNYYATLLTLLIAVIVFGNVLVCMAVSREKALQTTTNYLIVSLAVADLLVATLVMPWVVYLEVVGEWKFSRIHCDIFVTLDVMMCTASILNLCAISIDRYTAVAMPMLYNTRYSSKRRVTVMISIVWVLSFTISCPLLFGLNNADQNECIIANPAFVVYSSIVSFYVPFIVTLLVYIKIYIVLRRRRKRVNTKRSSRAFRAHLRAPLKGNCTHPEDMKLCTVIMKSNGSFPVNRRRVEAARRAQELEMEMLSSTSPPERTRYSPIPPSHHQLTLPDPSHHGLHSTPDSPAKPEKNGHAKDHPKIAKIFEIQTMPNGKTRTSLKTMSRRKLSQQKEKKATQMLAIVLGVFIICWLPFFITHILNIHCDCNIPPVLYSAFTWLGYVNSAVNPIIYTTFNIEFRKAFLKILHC

hα1A adrenergic receptor = molecular target: T3, hα1A adrenergic receptor (Homo sapiens, UniProt P35348); assay: Radioligand binding at hα1A adrenergic receptor ([3H]prazosin); conditions: mean ± SD
T3 construct: expressed in transfected cells; host or cells: Chinese hamster ovary cells (membrane preparations)
T3 sequence (P35348 1-466): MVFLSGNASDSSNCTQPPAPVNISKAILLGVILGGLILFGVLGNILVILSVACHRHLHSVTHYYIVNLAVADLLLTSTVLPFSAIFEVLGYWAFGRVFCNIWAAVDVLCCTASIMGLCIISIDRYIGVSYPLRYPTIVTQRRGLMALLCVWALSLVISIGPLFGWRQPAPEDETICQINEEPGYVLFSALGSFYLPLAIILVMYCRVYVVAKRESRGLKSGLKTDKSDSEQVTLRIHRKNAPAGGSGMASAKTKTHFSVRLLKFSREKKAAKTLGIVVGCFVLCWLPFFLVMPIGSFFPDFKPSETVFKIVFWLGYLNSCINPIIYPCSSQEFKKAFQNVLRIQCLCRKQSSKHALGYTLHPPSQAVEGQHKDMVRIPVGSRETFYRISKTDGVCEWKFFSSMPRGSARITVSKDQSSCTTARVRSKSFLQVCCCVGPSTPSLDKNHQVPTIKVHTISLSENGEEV

h5-HT2C receptor = molecular target: T4, h5-HT2C receptor (Homo sapiens, UniProt P28335); assay: biochemical; type: binding; conditions: [3H]mesulergine; mean ± SD; read-out: h5-HT2C Receptor binding Ki ± SD
T4 construct: expressed in transfected cells; host or cells: HEK 293 cells (membrane preparations)
T4 sequence (P28335 33-458): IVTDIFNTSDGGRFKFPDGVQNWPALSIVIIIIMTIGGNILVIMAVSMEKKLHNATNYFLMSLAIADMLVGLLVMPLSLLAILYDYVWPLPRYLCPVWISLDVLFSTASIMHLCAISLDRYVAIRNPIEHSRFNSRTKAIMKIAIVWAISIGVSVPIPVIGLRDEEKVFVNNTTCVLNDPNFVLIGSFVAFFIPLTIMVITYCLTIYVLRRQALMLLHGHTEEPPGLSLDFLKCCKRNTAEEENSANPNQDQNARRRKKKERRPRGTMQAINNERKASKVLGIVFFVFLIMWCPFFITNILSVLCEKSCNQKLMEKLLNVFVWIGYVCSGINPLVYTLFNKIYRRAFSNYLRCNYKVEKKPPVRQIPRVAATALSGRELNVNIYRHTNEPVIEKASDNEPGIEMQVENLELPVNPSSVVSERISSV

hSERT = molecular target: T5, hSERT (Homo sapiens, UniProt P31645); assay: Radioligand binding at hSERT ([3H]citalopram)
T5 construct: expressed in transfected cells; host or cells: HEK 293 cells (membrane preparations)
T5 sequence (P31645 whole entry): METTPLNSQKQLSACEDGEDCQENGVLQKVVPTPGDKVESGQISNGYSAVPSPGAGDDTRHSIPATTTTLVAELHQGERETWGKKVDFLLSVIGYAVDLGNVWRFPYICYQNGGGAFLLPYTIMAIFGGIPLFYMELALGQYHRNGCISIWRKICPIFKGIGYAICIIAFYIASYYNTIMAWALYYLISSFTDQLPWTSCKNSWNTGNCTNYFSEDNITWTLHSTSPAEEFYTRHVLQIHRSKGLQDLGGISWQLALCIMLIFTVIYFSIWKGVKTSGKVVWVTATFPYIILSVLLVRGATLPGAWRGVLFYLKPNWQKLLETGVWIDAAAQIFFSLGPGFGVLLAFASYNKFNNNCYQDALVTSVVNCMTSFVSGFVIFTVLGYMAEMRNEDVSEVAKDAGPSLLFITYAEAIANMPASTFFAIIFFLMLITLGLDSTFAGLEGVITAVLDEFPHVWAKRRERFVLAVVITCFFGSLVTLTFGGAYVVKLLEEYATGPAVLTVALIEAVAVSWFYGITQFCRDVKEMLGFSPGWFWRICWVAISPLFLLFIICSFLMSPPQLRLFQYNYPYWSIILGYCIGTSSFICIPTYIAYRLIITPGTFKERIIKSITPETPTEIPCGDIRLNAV

h5-HT1A receptor = molecular target: T6, h5-HT1A receptor (Homo sapiens, UniProt P08908); assay: Radioligand binding at h5-HT1A receptor ([3H]8-OH-DPAT)
T6 construct: expressed in transfected cells; host or cells: HEK 293 cells (membrane preparations)
T6 sequence (P08908 1-422): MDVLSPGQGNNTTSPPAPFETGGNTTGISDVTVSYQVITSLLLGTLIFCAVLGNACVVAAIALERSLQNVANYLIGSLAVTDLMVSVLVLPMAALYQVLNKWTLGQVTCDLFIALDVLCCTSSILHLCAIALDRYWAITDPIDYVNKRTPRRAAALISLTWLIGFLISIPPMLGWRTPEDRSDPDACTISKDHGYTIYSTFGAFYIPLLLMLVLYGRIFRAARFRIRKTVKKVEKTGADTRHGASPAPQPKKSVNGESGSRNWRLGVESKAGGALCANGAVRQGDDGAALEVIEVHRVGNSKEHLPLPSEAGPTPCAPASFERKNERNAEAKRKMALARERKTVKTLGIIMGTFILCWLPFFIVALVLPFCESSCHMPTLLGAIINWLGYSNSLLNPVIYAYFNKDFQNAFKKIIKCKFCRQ

human 5-HT2B receptor = human 5-HT2B receptor (Homo sapiens, UniProt P41595); conditions: for EC50: h5-HT2B Activation potency EC50 ± SD, HEK 293 cells, calcium FLIPR, mean ± SD; for Emax: HEK293, read-out: h5-HT2B Activation efficacy max ± SD, relative to 5-HT = 100%
human 5-HT2B receptor, sequence (P41595 whole entry): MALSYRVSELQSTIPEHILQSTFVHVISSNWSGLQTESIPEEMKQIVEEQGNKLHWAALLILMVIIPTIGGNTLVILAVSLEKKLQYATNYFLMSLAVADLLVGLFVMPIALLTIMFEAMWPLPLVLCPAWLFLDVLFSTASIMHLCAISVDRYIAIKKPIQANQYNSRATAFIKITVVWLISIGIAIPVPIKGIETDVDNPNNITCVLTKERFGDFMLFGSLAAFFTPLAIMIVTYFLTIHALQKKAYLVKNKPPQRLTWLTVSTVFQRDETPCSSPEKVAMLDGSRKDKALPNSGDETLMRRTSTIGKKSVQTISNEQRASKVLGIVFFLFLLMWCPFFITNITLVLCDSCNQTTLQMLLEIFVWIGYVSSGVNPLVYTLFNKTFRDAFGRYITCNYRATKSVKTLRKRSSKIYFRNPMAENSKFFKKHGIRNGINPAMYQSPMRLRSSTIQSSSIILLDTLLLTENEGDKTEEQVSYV

hDAT = molecular target: T7, hDAT (Homo sapiens, UniProt Q01959); assay: Radioligand binding at hDAT ([3H]WIN35,428)
T7 construct: expressed in transfected cells; host or cells: HEK 293 cells (membrane preparations)
T7 sequence (Q01959 whole entry): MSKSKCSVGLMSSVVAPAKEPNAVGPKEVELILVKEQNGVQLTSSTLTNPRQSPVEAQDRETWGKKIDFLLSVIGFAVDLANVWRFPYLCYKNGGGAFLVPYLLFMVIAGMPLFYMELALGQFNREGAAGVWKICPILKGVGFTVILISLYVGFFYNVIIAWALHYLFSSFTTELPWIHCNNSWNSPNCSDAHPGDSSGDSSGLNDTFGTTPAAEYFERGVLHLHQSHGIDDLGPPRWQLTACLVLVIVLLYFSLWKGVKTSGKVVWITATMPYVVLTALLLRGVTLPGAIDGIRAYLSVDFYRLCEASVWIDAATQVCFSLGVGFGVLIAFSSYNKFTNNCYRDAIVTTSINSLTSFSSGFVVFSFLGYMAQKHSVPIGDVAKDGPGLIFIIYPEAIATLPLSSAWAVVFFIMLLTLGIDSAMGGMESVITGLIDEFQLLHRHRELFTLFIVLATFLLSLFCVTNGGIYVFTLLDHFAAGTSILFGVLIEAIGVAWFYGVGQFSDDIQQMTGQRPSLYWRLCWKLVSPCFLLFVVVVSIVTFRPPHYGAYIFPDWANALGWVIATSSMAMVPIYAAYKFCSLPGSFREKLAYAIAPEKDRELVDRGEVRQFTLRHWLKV

hα2A adrenergic receptor = molecular target: T8, hα2A adrenergic receptor (Homo sapiens, UniProt P08913); assay: Radioligand binding at hα2A adrenergic receptor ([3H]rauwolscine)
T8 construct: expressed in transfected cells; host or cells: Chinese hamster lung cells (membrane preparations)
T8 sequence (P08913 1-465): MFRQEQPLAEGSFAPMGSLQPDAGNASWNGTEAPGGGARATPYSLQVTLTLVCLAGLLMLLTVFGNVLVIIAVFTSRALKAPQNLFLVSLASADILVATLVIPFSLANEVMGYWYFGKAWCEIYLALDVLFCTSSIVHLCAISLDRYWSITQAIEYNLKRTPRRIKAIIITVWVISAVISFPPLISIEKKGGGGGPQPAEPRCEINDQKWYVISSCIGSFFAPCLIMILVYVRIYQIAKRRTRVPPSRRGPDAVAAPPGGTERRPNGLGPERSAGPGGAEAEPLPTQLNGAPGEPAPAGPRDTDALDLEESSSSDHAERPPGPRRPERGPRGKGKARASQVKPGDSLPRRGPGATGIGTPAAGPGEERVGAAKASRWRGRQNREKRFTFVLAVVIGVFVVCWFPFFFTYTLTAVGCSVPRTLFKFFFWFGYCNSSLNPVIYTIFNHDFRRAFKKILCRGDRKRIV

mouse TAAR1 = molecular target: T9, mouse TAAR1 (Mus musculus, UniProt Q923Y8); assay: Radioligand binding at mouse TAAR1 ([3H]RO5166017)
T9 construct: expressed in transfected cells; host or cells: HEK 293 cells (membrane preparations)
T9 sequence (Q923Y8 whole entry): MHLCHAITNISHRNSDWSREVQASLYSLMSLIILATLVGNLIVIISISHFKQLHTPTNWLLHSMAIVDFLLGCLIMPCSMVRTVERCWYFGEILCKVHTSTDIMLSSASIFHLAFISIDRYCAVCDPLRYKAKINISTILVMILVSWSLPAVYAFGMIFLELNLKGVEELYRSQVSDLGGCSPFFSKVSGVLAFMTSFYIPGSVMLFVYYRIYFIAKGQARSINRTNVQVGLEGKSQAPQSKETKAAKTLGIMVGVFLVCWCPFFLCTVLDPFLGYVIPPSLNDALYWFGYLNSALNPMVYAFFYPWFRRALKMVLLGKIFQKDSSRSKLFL

human 5-HT2A receptor = human 5-HT2A receptor (Homo sapiens, UniProt P28223); conditions: for Emax: NIH3T3, read-out: h5-HT2A Activation efficacy max ± SD, relative to 5-HT = 100%
human 5-HT2A receptor, sequence (P28223 whole entry): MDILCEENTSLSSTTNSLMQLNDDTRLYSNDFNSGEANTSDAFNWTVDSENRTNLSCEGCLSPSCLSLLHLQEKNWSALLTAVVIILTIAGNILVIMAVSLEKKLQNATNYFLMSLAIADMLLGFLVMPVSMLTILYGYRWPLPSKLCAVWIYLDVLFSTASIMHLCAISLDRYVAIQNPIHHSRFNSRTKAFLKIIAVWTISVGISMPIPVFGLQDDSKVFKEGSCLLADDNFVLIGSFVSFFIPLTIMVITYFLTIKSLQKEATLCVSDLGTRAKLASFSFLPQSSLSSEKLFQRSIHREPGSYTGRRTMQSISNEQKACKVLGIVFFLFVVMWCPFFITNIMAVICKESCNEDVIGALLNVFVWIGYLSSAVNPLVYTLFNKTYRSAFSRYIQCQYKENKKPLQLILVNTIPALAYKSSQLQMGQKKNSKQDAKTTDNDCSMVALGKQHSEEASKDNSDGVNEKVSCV

hNET = molecular target: T10, hNET (Homo sapiens, UniProt P23975); assay: Radioligand binding at hNET (N-methyl-[3H]nisoxetine)
T10 construct: expressed in transfected cells; host or cells: HEK 293 cells (membrane preparations)
T10 sequence (P23975 whole entry): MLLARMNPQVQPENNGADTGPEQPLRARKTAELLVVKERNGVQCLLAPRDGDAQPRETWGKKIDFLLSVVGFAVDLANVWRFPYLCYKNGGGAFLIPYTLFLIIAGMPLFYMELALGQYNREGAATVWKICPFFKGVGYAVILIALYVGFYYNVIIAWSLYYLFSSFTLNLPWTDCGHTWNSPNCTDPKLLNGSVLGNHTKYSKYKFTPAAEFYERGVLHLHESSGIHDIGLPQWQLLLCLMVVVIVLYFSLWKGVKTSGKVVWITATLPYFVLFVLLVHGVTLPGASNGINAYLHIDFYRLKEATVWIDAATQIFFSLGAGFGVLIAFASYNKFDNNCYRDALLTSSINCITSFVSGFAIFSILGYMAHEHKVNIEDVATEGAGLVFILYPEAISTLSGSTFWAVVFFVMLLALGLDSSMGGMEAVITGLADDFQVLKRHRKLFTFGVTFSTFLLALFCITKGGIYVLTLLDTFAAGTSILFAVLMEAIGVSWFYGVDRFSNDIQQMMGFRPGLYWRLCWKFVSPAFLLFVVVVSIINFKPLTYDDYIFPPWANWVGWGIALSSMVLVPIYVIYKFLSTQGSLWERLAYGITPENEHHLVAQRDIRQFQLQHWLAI

h5-HT2A receptor = molecular target: T11, h5-HT2A receptor (Homo sapiens, UniProt P28223); assay: Radioligand binding at h5-HT2A receptor ([3H]ketanserin); conditions: for Selectivity 5-HT2A vs. 5-HT1A / Selectivity 5-HT2A vs. 5-HT2C: binding ratio; for Ki: h5-HT2A Receptor binding Ki ± SD, [3H]ketanserin, mean ± SD
T11 construct: expressed in transfected cells; host or cells: HEK 293 cells (membrane preparations)
T11 sequence (P28223 whole entry): as the sequence (P28223 whole entry) above

Compound | Ki (rat TAAR1) [µM] | Ki [1] [µM] | Ki (hα1A adrenergic receptor) [µM] | Ki (h5-HT2C receptor) [µM] | Ki (hSERT) [µM] | Ki (h5-HT1A receptor) [µM] | EC50 (human 5-HT2B receptor) [nM] | Ki (hDAT) [µM] | Ki (hα2A adrenergic receptor) [µM] | Ki (mouse TAAR1) [µM] | EC50 (human 5-HT2A receptor) [nM] | Emax (human 5-HT2A receptor) [%] | Ki (hNET) [µM] | Selectivity 5-HT2A vs. 5-HT2C (h5-HT2A receptor) | Ki (h5-HT2A receptor) [nM] | Emax (human 5-HT2B receptor) [%] | also measured
COc1cc(CC(C)N)c(OC)cc1Br (stereo not drawn) [compound 2, 4-bromo-2,5-dimethoxyamphetamine, reference compound] |  |  |  |  |  |  |  |  |  |  |  |  |  |  |  |  | Psychedelic / active dose in humans (humans; ref Shulgin and Shulgin 1991): 1 to 3 mg
COc1cc(CC(C)N)c(OC)cc1C (stereo not drawn) [compound 7, 2,5-dimethoxy-4-methylamphetamine, reference compound] |  |  |  |  |  |  |  |  |  |  |  |  |  |  |  |  | Psychedelic / active dose in humans (humans; ref Shulgin and Shulgin 1991): 3 to 10 mg
COc1cc(CCN)cc(OC)c1SC [compound 10, 4-thiomescaline, reference compound] |  |  |  |  |  |  |  |  |  |  |  |  |  |  |  |  | Increase in human potency compared to mescaline (5) (humans; ref Shulgin and Shulgin 1991): 10 fold; Psychedelic / active dose in humans (humans; ref Shulgin and Shulgin 1991): 20 to 40 mg
COc1cc(CCN)cc(OC)c1OC(F)F [compound 12, 4-difluoromethoxy-3,5-dimethoxyphenethylamine] | 0.88 ± 0.18 | > 6.3 | 8 | 2.8 | > 7.5 | 2.5 | > 10000 | > 8.5 | 1.7 | > 4.2 | 1500 | 85 to 94 | > 9.7 | 0.8 | 3500 |  | Increase in human potency compared to mescaline (5) (humans; ref Trachsel 2012): 4 fold; Selectivity 5-HT2A vs. 5-HT1A (h5-HT2A receptor): 0.7
COc1cc(CCN)cc(OC)c1OCCF [compound 16, 3,5-dimethoxy-4-(2-fluoroethoxy)phenethylamine] | > 4 | > 6.3 | > 8.7 | 5.7 | > 7.5 | > 5.6 | 2300 | > 8.5 | 3.7 | > 4.2 | 5700 | 85 to 94 | > 9.7 |  | > 12000 | 29 ± 7 | 
COc1cc(CCN)cc(OC)c1OCC(F)F [compound 17, 4-(2,2-difluoroethoxy)-3,5-dimethoxyphenethylamine] | 2.1 | > 6.3 | > 8.7 | 2.7 | > 7.5 | > 5.6 | 1700 | > 8.5 | 2.7 | > 4.2 | 1300 | 44 to 78 | > 9.7 | 0.9 | 2900 | 25 ± 7 | 
COc1cc(CC(C)N)cc(OC)c1OCC(F)F (stereo not drawn) [compound 19, 4-(2,2-difluoroethoxy)-3,5-dimethoxyamphetamine] | 3.9 | > 6.3 | > 8.7 | 2.6 | > 7.5 | > 5.6 | 260 ± 30 | > 8.5 | > 5.1 | > 4.2 | 120 ± 20 | 86 to 102 | > 9.7 | 1.7 | 1500 | 18 to 29 | 
COc1cc(CC(C)N)cc(OC)c1OCCF (stereo not drawn) [compound 20, 3,5-dimethoxy-4-(2-fluoroethoxy)amphetamine] | > 4.7 | > 6.3 | > 8.7 | 8.4 | > 7.5 | > 5.6 | 800 ± 240 | > 8.5 | > 5.1 | > 4.2 | 120 ± 40 | 86 to 102 | > 9.7 |  | 12000 | 18 to 29 | Selectivity 5-HT2A vs. 5-HT1A (h5-HT2A receptor): >1
COc1cc(CCN)cc(OC)c1OC(C)C [compound 22, 3,5-dimethoxy-4-isopropoxyphenethylamine] | > 4.7 | > 6.3 | > 8.7 | 5.4 | > 7.5 | > 5.6 | > 10000 | > 8.5 | 1.2 | > 4.2 | 1900 |  | > 9.7 | 0.9 | 6200 |  | Selectivity 5-HT2A vs. 5-HT1A (h5-HT2A receptor): >1
COc1cc(CC(C)N)cc(OC)c1OCCCF (stereo not drawn) [compound 27, 3,5-dimethoxy-4-(3-fluoropropoxy)-amphetamine] | > 4.7 | > 6.3 | > 8.7 | 4.4 | > 7.5 | > 5.6 | > 10000 | > 8.5 | > 5.1 | 2.8 | 57 ± 2 |  | > 9.7 | 1.7 | 2600 |  | 
C=CCOc1c(OC)cc(CC(C)N)cc1OC (stereo not drawn) [compound 31, 4-allyloxy-3,5-dimethoxyamphetamine] | 3.6 | > 6.3 | > 8.7 | 1.7 | > 7.5 | > 5.6 | > 10000 | > 8.5 | > 5.1 | 3.3 | 190 ± 30 |  | > 9.7 | 1.7 | 1100 |  | Active dose in humans (humans; ref Trachsel et al., 2013): 15 to 30 mg; Increase in 5-HT2A receptor affinity compared with TMA (6) (h5-HT2A receptor; ratio of Ki values): ≥ 10 fold
